What follows are compounds tested against T1, CCR1 (Homo sapiens, UniProt P32246) (assay: Method B: calcium flux in CCR1 transfected cells (Calcium 4 dye, […] FDSS6000), block of the CCR1/MIP-1α interaction). Conditions: Method B: Calcium 4 dye, MIP-1alpha at EC80.
T1 sequence (P32246 1-355): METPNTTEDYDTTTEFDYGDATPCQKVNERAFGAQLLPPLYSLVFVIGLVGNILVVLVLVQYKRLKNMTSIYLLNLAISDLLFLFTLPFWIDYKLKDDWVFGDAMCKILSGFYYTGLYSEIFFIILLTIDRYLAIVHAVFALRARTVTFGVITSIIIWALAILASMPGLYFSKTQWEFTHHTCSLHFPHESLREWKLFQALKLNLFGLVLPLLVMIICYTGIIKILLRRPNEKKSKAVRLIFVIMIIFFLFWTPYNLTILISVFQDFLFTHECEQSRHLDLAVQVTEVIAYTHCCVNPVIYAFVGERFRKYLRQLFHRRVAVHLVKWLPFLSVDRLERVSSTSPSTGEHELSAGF
Type: cell-based
Experimental: Compounds are assessed for the ability to block the interaction of CCR1 and MIP-1α in a functional cellular assay measuring calcium flux in CCR1 transfected cells.
Method B: Non-adherent cells purchased from Chemicon Corporation (HTS005C), stably expressing recombinant CCR1 and G-alpha-16 are grown in RPMI 1640 medium (Mediatech 10-080-CM) supplemented with 10% FBS, 0.4 mg/mL Geneticin and penicillin/streptomycin. On the day of the assay, the cells are loaded with Calcium 4 dye (Molecular Devices R7448) with Probenecid (Invitrogen P346400) at 8E5 cells/mL for 1 hour at room temperature. After 1 hour, they are seeded in a 384-well tissue culture-treated plate at a density of 20,000 cells/well. Appropriately diluted test compound is added to the well to achieve a top concentration of 3,000 nM (diluted 4-fold with 10 doses total). The final concentration of DMSO is 1%. The buffer is HBSS (Invitrogen 14025) with 20 mM HEPES at pH 7.4. The cells incubate 30 minutes at 37 C and then 30 minutes at room temperature. The plates are transferred to the […] FDSS6000 where MIP-1alpha in 1% BSA is added at the EC80 final concentration. All plates must be read within 4 hours of the start of dye-loading. Wells+/−MIP-1alpha containing diluted DMSO instead of compound serve as the controls. Data are analyzed using Activity Base software.

Point of comparison: CCC(NC(=O)c1cncc2c1cnn2-c1ccc(F)cc1)C1CCCN(C(=O)OC(C)(C)C)C1 (centres unmarked) [3-(1-{[1-(4-Fluorophenyl)-1H-pyrazolo[3,4-c]pyridine-4-carbonyl]-amino}-propyl)-piperidine-1-carboxylic acid tert-butyl ester], IC50 26 nM. Against it:
- CC[C@H](NC(=O)c1cncc2c1cnn2-c1ccc(F)cc1)c1nc(C(=O)NC)cs1 [1-(4-Fluorophenyl)-1H-pyrazolo[3,4-c]pyridine-4-carboxylic acid [(S)-1-(4-methylcarbamoyl-thiazol-2-yl)-propyl]-amide] — 8.7-fold lower, 3 nM
- C[C@H](NC(=O)c1cncc2c1cnn2-c1ccc(F)cc1)c1cc(N(C)CC(N)=O)nc(S(C)(=O)=O)c1 [1-(4-Fluorophenyl)-1H-pyrazolo[3,4-c]pyridine-4-carboxylic acid {(S)-1-[2-(carbamoylmethyl-methyl-amino)-6-methanesulfonyl-pyridin-4-yl]-ethyl}-amide] — 26-fold lower, 1 nM
- CC[C@@H](NC(=O)c1cncc2c1cnn2-c1ccc(F)cc1)c1ccc(OC)c(Br)c1 [1-(4-Fluorophenyl)-1H-pyrazolo[3,4-c]pyridine-4-carboxylic acid [(R)-1-(3-bromo-4-methoxy-phenyl)-propyl]-amide] — 130-fold lower, 0.2 nM
- C[C@H](NC(=O)c1cncc2c1cnn2-c1ccc(F)cc1)c1ccnc(S(=O)(=O)CCCO)c1 [1-(4-Fluorophenyl)-1H-pyrazolo[3,4-c]pyridine-4-carboxylic acid {(S)-1-[2-(3-hydroxy-propane-1-sulfonyl)-pyridin-4-yl]-ethyl}-amide] — within 1.5-fold, 38 nM
- CC[C@H](NC(=O)c1cncc2c1cnn2-c1ccc(F)cc1)[C@@H]1CCN(S(C)(=O)=O)[C@H](C(N)=O)C1 [1-(4-Fluorophenyl)-1H-pyrazolo[3,4-c]pyridine-4-carboxylic acid [(S)-1-((2S,4R)-2-carbamoyl-1-methanesulfonyl-piperidin-4-yl)-propyl]-amide] — 2.2-fold lower, 12 nM
- CCS(=O)(=O)c1cc([C@H](C)NC(=O)c2cncc3c2cnn3-c2ccc(F)cc2)ccn1 [1-(4-Fluorophenyl)-1H-pyrazolo[3,4-c]pyridine-4-carboxylic acid [(S)-1-(2-ethanesulfonyl-pyridin-4-yl)-ethyl]-amide] — 13-fold lower, 2 nM
- CS(=O)(=O)n1ccc2c(CNC(=O)c3cncc4c3cnn4-c3ccc(F)cc3)ccnc21 [1-(4-Fluorophenyl)-1H-pyrazolo[3,4-c]pyridine-4-carboxylic acid (1-methanesulfonyl-1H-pyrrolo[2,3-b]pyridin-4-ylmethyl)-amide] — 8.7-fold lower, 3 nM
- CC[C@H](NC(=O)c1cncc2c1cnn2-c1ccc(F)cc1)c1ccc(S(=O)(=O)CC)nc1 [1-(4-Fluorophenyl)-1H-pyrazolo[3,4-c]pyridine-4-carboxylic acid [(S)-1-(6-ethanesulfonyl-pyridin-3-yl)-propyl]-amide] — 87-fold lower, 0.3 nM
- C[C@H](NC(=O)c1cncc2c1cnn2-c1ccc(F)cc1)c1ccnc(Br)c1 [1-(4-Fluorophenyl)-1H-pyrazolo[3,4-c]pyridine-4-carboxylic acid [(S)-1-(2-bromopyridin-4-yl)-ethyl]-amide] — 65-fold lower, 0.4 nM
- CCC(NC(=O)c1cncc2c1cnn2-c1ccc(F)cc1)c1nc(C(=O)NCC(=O)OC)c(C)o1 (centres unmarked) [{[2-(1-{[1-(4-Fluorophenyl)-1H-pyrazolo[3,4-c]pyridine-4-carbonyl]-amino}-propyl)-5-methyl-oxazole-4-carbonyl]-amino}-acetic acid methyl ester] — the same, 26 nM
- CCS(=O)(=O)c1cncc([C@H](C)NC(=O)c2cncc3c2cnn3-c2ccc(F)cc2)c1 [1-(4-Fluorophenyl)-1H-pyrazolo[3,4-c]pyridine-4-carboxylic acid [(S)-1-(5-ethanesulfonyl-pyridin-3-yl)-ethyl]-amide] — 6.5-fold lower, 4 nM
- COC(=O)C[C@H](NC(=O)c1cncc2c1cnn2-c1ccc(F)cc1)c1ccnc(S(C)(=O)=O)c1 [(S)-3-{[1-(4-Fluorophenyl)-1H-pyrazolo[3,4-c]pyridine-4-carbonyl]-amino}-3-(2-methanesulfonyl-pyridin-4-yl)-propionic acid methyl ester] — 6.5-fold lower, 4 nM
- C[C@H](NC(=O)c1cncc2c1cnn2-c1ccc(F)cc1)c1nc(Br)cs1 [1-(4-Fluorophenyl)-1H-pyrazolo[3,4-c]pyridine-4-carboxylic acid [(S)-1-(4-bromo-thiazol-2-yl)-ethyl]-amide] — within 1.5-fold, 24 nM
- CC[C@H](NC(=O)c1cncc2c1cnn2-c1ccc(F)cc1)c1cnc(S(C)(=O)=O)s1 [1-(4-Fluorophenyl)-1H-pyrazolo[3,4-c]pyridine-4-carboxylic acid [(S)-1-(2-methanesulfonyl-thiazol-5-yl)-propyl]-amide] — 43-fold lower, 0.6 nM
- COC[C@H](NC(=O)c1cncc2c1cnn2-c1ccc(F)cc1)c1ccnc(S(C)(=O)=O)c1 [1-(4-Fluorophenyl)-1H-pyrazolo[3,4-c]pyridine-4-carboxylic acid [(R)-1-(2-methanesulfonyl-pyridin-4-yl)-2-methoxy-ethyl]-amide] — 26-fold lower, 1 nM
- CC[C@H](NC(=O)c1cncc2c1cnn2-c1ccc(F)cc1)[C@@H]1CCN(S(C)(=O)=O)[C@@H](C(N)=O)C1 [1-(4-Fluorophenyl)-1H-pyrazolo[3,4-c]pyridine-4-carboxylic acid [(S)-1-((2R,4R)-2-carbamoyl-1-methanesulfonyl-piperidin-4-yl)-propyl]-amide] — 2.6-fold lower, 10 nM
- CC[C@H](NC(=O)c1cncc2c1cnn2-c1ccc(F)cc1)c1cc(S(C)(=O)=O)co1 [1-(4-Fluorophenyl)-1H-pyrazolo[3,4-c]pyridine-4-carboxylic acid [(S)-1-(4-methanesulfonyl-furan-2-yl)-propyl]-amide] — 4.3-fold lower, 6 nM
- C[C@H](NC(=O)c1cncc2c1cnn2-c1ccc(F)cc1)c1cnc(S(C)(=O)=O)o1 [1-(4-Fluorophenyl)-1H-pyrazolo[3,4-c]pyridine-4-carboxylic acid [(S)-1-(2-methanesulfonyl-oxazol-5-yl)-ethyl]-amide] — within 1.5-fold, 19 nM
- CS(=O)(=O)c1cc([C@H](CC2COC(=O)O2)NC(=O)c2cncc3c2cnn3-c2ccc(F)cc2)ccn1 (stereo partly drawn) [1-(4-Fluorophenyl)-1H-pyrazolo[3,4-c]pyridine-4-carboxylic acid [(S)-1-(2-methanesulfonyl-pyridin-4-yl)-2-(2-oxo-1,3-dioxolan-4-yl)-ethyl]-amide] — 4.3-fold lower, 6 nM
- CCOC(=O)Cn1cc([C@H](CC)NC(=O)c2cncc3c2cnn3-c2ccc(F)cc2)cn1 [[4-((S)-1-{[1-(4-Fluorophenyl)-1H-pyrazolo[3,4-c]pyridine-4-carbonyl]-amino}-propyl)-pyrazol-1-yl]-acetic acid ethyl ester] — within 1.5-fold, 25 nM
- CCC(C)(NC(=O)c1cncc2c1cnn2-c1ccc(F)cc1)c1ccnc(Br)c1 (centres unmarked) [1-(4-Fluorophenyl)-1H-pyrazolo[3,4-c]pyridine-4-carboxylic acid [1-(2-bromo-pyridin-4-yl)-1-methyl-propyl]-amide] — 2.4-fold lower, 11 nM
- CC[C@H](NC(=O)c1cncc2c1cnn2-c1ccc(F)cc1)c1ccnc(C(=O)O)c1 [4-((S)-1-{[1-(4-Fluorophenyl)-1H-pyrazolo[3,4-c]pyridine-4-carbonyl]-amino}-propyl)-pyridine-2-carboxylic acid] — 2.2-fold lower, 12 nM
- CC[C@H](NC(=O)c1cncc2c1cnn2-c1ccc(F)cc1)c1ccc(OC)c(S(C)(=O)=O)c1 [1-(4-Fluorophenyl)-1H-pyrazolo[3,4-c]pyridine-4-carboxylic acid [(S)-1-(3-methanesulfonyl-4-methoxy-phenyl)-propyl]-amide] — 4.3-fold lower, 6 nM
- CCS(=O)(=O)c1cccc([C@H](C)NC(=O)c2cncc3c2cnn3-c2ccc(F)cc2)n1 [1-(4-Fluorophenyl)-1H-pyrazolo[3,4-c]pyridine-4-carboxylic acid [(S)-1-(6-ethanesulfonyl-pyridin-2-yl)-ethyl]-amide] — 1.9-fold lower, 14 nM
- O=C(NCc1cnc(N2CCOCC2)s1)c1cncc2c1cnn2-c1ccc(F)cc1 [1-(4-Fluorophenyl)-1H-pyrazolo[3,4-c]pyridine-4-carboxylic acid (2-morpholin-4-yl-thiazol-5-ylmethyl)-amide] — 1.6-fold lower, 16 nM
- CN(c1ncc(CNC(=O)c2cncc3c2cnn3-c2ccc(F)cc2)cn1)S(C)(=O)=O [1-(4-Fluorophenyl)-1H-pyrazolo[3,4-c]pyridine-4-carboxylic acid [2-(methanesulfonyl-methyl-amino)-pyrimidin-5-ylmethyl]-amide] — 13-fold lower, 2 nM
- CC[C@H](NC(=O)c1cncc2c1cnn2-c1ccc(F)cc1)c1cc(Br)no1 [1-(4-Fluorophenyl)-1H-pyrazolo[3,4-c]pyridine-4-carboxylic acid [(S)-1-(3-bromo-isoxazol-5-yl)-propyl]-amide] — within 1.5-fold, 28 nM
- CCC[C@@H](NC(=O)c1cncc2c1cnn2-c1ccc(F)cc1)c1ccc(OC)c(S(C)(=O)=O)c1 [1-(4-Fluorophenyl)-1H-pyrazolo[3,4-c]pyridine-4-carboxylic acid [(R)-1-(3-methanesulfonyl-4-methoxy-phenyl)-butyl]-amide] — 130-fold lower, 0.2 nM
